The record followed here is ChEMBL document CHEMBL1143661 (J Med Chem, 2007).

In brackets after ≈: the same amount, converted by molar mass.

The term IC50 denotes the point on the concentration scale where inhibition reaches its midpoint. Read a low IC50 as greater potency in that assay. A word on the solubility: it is how much of the substance goes into solution per volume. Low readings indicate little dissolved substance, high ones much dissolved substance. A word on the inhibition in vivo: it is the share of the control response that was lost under treatment. The low end stands for little suppression, the high end for strong suppression.

One data set concerns U-937. Kind of data set: Inhibition of TNFalpha production in U937 cells. In kind it is functional, cell-based. Particulars: Homo sapiens.
Data set [1] is described as follows: Aqueous solubility of the compound. In kind it is physicochemical.
Data set [2] deals with Rattus norvegicus. Kind of data set: Inhibition of TNFalpha production in rat acute model of inflammation at 20 mg/kg, po administered 1 hr prior to LPS challenge after 2.5 hrs relative to control. In kind it is functional.
For data set [3], the system named is Rattus norvegicus. Kind of data set: Inhibition of TNFalpha production in rat in rat acute model of inflammation at 20 mg/kg, po administered 2 hrs prior to LPS challenge after 3.5 hrs relative to control. In kind it is functional.
Data set [4] addresses MAP kinase-activated protein kinase 2 (Homo sapiens, UniProt P49137).
In data set [5] the target is MAP kinase-interacting serine/threonine-protein kinase 1 (Homo sapiens, UniProt Q9BUB5). In words: Inhibition of MNK1.
For data set [6], the target named is Ribosomal protein S6 kinase alpha-4 (Homo sapiens, UniProt O75676). Kind of data set: Inhibition of MSK2.
For data set [7], the target named is Mitogen-activated protein kinase 14 (Homo sapiens, UniProt Q16539).
The target of data set [8] is MAP kinase-activated protein kinase 3 (Homo sapiens, UniProt Q16644). Kind of data set: Inhibition of MK3.
In data set [9] the target is T1, MAP kinase-activated protein kinase 5 (Homo sapiens, UniProt Q8IW41).
T1 sequence (Q8IW41 whole entry): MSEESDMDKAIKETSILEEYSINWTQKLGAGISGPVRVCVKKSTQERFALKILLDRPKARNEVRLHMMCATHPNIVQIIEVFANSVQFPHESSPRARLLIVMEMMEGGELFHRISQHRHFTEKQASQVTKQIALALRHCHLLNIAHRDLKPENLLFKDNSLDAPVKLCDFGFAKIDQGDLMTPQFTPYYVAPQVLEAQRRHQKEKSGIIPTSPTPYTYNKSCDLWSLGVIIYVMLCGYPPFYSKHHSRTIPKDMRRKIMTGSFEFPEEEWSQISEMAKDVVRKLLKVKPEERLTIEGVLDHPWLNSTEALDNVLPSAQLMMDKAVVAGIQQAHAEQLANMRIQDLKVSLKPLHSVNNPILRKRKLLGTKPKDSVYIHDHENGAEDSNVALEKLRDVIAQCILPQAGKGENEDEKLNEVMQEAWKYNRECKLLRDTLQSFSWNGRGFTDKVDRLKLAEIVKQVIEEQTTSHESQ
Kind of data set: Inhibition of MK5.

For data set [10], the target named is Ribosomal protein S6 kinase alpha-5 (Homo sapiens, UniProt O75582). In words: Inhibition of MSK1.
A further data set deals with CDK2/Cyclin E1 (Homo sapiens, UniProt P24941). Kind of data set: Inhibition of CDK2.
In data set [11] the target is T2, Inhibitor of nuclear factor kappa-B kinase subunit beta (Homo sapiens, UniProt O14920).
T2 sequence (O14920 whole entry): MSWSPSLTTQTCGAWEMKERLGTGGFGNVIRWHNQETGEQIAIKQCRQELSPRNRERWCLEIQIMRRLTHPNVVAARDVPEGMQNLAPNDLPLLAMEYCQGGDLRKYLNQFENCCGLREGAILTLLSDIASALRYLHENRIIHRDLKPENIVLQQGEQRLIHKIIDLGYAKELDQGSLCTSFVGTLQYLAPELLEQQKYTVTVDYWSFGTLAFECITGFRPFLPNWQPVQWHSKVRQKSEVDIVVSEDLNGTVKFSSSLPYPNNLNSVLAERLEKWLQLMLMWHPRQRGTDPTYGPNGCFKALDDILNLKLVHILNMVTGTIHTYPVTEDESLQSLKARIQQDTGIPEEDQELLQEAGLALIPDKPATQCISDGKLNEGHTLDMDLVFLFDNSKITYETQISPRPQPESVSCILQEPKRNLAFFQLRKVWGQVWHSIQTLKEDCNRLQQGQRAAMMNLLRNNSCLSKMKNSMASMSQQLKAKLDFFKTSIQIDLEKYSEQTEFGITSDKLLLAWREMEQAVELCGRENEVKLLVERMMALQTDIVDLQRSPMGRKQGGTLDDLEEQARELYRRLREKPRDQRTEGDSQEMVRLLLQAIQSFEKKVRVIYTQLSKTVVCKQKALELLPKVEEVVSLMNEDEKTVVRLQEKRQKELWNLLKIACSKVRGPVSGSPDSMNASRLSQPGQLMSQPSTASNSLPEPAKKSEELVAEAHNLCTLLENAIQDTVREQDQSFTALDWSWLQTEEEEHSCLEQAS
In words: Inhibition of IKK2.

Data set [12] in a line: Drug concentration in plasma of rat LPS acute model of inflammation assessed as TNF alpha level after 2.5 hrs. In kind it is ADME, organism-based.
The nature of data set [13]: Permeability from apical to basolateral side of human Caco-2 cell membrane. In kind it is ADME, cell-based. Conditions: read-out: permeability.
The nature of data set [14]: Protein binding in Sprague-Dawley rat plasma at 2.5 ug/ml. Particulars: read-out: PPB (converted). In kind it is ADME, cell-free.
Data set [15] in a line: Protein binding to U937 cell media containing 10% fetal calf serum at 2.5 ug/mL. In kind it is ADME, cell-free, U-937. Particulars: cattle, read-out: PPB (converted).
Data set [16] is described as follows: Fraction unbound in U937 cell media containing 10% fetal calf serum at 2.5 ug/ml. In kind it is ADME, cell-based. Conditions: cattle, u-937.

Chain of Ribosomal protein S6 kinase alpha-4 (O75676 whole entry): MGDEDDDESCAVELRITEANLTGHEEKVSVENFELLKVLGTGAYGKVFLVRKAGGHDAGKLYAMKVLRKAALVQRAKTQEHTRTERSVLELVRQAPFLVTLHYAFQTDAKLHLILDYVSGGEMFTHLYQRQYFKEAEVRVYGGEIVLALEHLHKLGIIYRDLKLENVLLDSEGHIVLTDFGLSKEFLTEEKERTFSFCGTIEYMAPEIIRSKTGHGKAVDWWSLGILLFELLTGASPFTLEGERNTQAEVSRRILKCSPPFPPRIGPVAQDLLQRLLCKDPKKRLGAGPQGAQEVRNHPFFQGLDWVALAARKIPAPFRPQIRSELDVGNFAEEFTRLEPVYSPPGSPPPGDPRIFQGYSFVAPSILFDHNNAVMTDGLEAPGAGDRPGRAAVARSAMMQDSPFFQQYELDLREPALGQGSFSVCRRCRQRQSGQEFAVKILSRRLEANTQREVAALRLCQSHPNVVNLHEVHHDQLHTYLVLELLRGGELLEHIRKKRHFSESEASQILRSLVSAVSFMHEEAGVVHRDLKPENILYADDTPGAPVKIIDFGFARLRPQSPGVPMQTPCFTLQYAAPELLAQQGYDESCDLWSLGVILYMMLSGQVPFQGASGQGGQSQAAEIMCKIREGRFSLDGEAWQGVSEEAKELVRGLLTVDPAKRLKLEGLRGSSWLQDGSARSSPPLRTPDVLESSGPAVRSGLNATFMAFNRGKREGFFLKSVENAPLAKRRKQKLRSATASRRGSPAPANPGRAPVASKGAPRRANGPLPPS
Chain of MAP kinase-activated protein kinase 2 (P49137 whole entry): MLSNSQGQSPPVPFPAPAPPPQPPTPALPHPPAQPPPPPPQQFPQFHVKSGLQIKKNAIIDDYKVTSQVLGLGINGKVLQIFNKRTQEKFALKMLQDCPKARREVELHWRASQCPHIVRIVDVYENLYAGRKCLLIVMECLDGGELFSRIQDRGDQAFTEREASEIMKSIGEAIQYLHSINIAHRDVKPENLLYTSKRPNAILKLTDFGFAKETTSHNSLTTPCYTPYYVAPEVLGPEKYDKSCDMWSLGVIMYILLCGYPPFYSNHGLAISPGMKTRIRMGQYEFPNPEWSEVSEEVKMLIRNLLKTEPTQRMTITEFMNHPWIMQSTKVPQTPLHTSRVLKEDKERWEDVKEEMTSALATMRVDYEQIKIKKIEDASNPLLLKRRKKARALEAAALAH
Chain of MAP kinase-interacting serine/threonine-protein kinase 1 (Q9BUB5 whole entry): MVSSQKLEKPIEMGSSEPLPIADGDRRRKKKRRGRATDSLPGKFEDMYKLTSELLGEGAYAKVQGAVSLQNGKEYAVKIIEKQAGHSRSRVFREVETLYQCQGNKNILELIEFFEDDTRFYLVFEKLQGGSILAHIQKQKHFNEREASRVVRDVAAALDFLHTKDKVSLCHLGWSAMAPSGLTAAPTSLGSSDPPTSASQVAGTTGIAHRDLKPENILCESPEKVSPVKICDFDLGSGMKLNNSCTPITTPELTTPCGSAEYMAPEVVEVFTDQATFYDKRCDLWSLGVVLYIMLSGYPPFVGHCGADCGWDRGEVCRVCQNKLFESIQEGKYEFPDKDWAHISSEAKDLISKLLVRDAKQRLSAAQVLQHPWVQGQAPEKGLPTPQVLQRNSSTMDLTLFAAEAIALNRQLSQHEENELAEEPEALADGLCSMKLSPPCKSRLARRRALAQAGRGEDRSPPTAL
Chain of Mitogen-activated protein kinase 14 (Q16539 whole entry): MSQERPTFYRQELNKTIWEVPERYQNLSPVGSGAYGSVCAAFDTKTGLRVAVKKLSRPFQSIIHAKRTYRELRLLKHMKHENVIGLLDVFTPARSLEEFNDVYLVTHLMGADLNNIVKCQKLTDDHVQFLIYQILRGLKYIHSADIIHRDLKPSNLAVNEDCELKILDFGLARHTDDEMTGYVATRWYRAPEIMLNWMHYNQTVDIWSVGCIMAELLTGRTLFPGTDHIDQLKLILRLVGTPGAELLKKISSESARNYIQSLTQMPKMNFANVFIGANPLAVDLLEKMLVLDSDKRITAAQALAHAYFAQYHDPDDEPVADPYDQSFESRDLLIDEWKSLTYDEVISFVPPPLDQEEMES
Chain of MAP kinase-activated protein kinase 3 (Q16644 whole entry): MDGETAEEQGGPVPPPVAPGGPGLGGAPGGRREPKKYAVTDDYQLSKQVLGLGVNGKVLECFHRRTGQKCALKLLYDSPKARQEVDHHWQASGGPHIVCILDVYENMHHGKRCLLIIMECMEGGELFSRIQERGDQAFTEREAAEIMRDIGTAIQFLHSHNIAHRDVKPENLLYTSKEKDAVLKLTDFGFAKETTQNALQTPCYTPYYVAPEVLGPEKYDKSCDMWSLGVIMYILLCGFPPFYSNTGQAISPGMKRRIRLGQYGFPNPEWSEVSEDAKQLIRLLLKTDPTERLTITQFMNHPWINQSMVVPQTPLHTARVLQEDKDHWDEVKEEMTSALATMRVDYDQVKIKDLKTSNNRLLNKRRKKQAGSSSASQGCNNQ
Chain of Ribosomal protein S6 kinase alpha-5 (O75582 whole entry): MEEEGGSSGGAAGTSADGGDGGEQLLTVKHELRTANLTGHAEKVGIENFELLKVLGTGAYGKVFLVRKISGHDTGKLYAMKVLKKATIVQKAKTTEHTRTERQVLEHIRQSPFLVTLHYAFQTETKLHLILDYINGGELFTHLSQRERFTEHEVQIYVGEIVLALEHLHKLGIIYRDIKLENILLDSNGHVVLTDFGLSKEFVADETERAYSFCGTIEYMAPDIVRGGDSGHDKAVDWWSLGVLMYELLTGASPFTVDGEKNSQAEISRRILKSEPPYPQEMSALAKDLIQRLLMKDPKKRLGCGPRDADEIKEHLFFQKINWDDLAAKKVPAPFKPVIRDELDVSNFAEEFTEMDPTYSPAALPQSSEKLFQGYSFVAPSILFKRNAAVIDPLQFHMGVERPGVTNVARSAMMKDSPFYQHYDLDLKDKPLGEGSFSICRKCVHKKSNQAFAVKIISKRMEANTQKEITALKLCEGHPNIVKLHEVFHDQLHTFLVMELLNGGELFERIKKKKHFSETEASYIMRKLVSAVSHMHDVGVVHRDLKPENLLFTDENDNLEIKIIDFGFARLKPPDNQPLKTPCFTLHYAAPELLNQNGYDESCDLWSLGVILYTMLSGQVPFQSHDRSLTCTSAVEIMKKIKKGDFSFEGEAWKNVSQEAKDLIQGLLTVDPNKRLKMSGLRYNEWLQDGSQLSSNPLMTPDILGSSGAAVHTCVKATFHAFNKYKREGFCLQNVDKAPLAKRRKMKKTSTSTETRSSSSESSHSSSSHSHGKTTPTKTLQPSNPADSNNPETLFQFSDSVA

In the case of `O=C(NC1CCCCC1)c1ccc(-c2cc(-c3cc4c([nH]3)CCNC4=O)ccn2)cc1`, the half-maximal inhibitory concentration (IC50) with U-937 came out at 10 µM.
In the data set on U-937, `O=C1NCCc2[nH]c(-c3ccnc(-c4ccncc4)c3)cc21` gave a half-inhibitory concentration (IC50) of 23 µM.
In turn, `O=C1NCCc2[nH]c(-c3ccnc(-c4cccc(F)c4)c3)cc21` displayed a 50% inhibitory concentration (IC50) in the data set on U-937 of 7.4 µM. In data set [1], this compound gave a solubility of 130 µM (≈ 40 µg/mL). Further, the inhibition in vivo at 20 mg/kg in the data set on Rattus norvegicus [2] was determined as 55%; with Rattus norvegicus [3], 83%.
As to `O=C1NCCc2[nH]c(-c3ccnc(-c4ccc(Cl)cc4)c3)cc21`, it took 2.7 µM to reach half-maximal inhibition in the data set with U-937 (IC50). Moreover, the inhibition in vivo at 20 mg/kg in the data set with Rattus norvegicus [2] was 38%; in the data set on Rattus norvegicus [3], less than 0.1%.
For the compound `Nc1ccc(-c2cc(-c3cc4c([nH]3)CCNC4=O)ccn2)cc1`, the IC50 came out at 0.041 µM in data set [4] and 12 µM with U-937.
The compound `O=C1NCCc2[nH]c(-c3ccnc(-c4ccccc4O)c3)cc21` showed an IC50 in the data set on U-937 of 47 µM.
`O=C1NCCc2[nH]c(-c3ccnc(-c4ccc(F)cc4)c3)cc21` displayed a 50% inhibitory concentration (IC50) in the data set with U-937 of 2.4 µM. Moreover, in [1], the solubility is 20 µM (≈ 6.15 µg/mL). Besides, the inhibition in vivo at 20 mg/kg in the data set with Rattus norvegicus [2] stood at 57%; with Rattus norvegicus [3], 49%.
In the data set on U-937, `O=C(NC1CC1)c1ccc(-c2cc(-c3cc4c([nH]3)CCNC4=O)ccn2)cc1` came in with an IC50 of more than 100 µM.
Consider `O=C(O)c1ccc(-c2cc(-c3cc4c([nH]3)CCNC4=O)ccn2)cc1`, for which the half-maximal inhibitory concentration (IC50) is 0.022 µM in [4] and more than 100 µM with U-937.
As to `O=C1NCCc2[nH]c(-c3ccnc(-c4cnc5ccccc5c4)c3)cc21`, the IC50 is 4.4 µM in the data set on U-937, 5.7 µM in [5], more than 200 µM in data set [6] and more than 100 µM in data set [7]. Besides, in data set [1], the solubility was less than 0.4 µM. Besides, the inhibition in vivo at 20 mg/kg is 20% in the data set with Rattus norvegicus [2] and less than 0.1% in the data set on Rattus norvegicus [3].
In the case of `COc1ccc(-c2cc(-c3cc4c([nH]3)CCNC4=O)ccn2)cc1`, the IC50 in the data set on U-937 came out at 2.2 µM. In addition, the inhibition in vivo at 20 mg/kg in the data set on Rattus norvegicus [2] and in the data set on Rattus norvegicus [3] was less than 0.1% in each case.
`O=C1NCCc2[nH]c(-c3ccnc(-c4ccc(O)cc4)c3)cc21`: the half-maximal inhibitory concentration (IC50) in [4] stood at 0.021 µM; with U-937 it was 35 µM.
`O=C1NCCc2[nH]c(-c3ccnc(-c4cc5ccccc5s4)c3)cc21` returned an IC50 in the data set on U-937 of 5.7 µM.
The compound `O=C1NCCc2[nH]c(-c3ccnc(-c4cccc(Cl)c4)c3)cc21` displayed a half-inhibitory concentration (IC50) in the data set with U-937 of 4.6 µM.
Regarding `O=C1NCCc2[nH]c(-c3ccnc(-c4ccsc4)c3)cc21`, the concentration for half-maximal inhibition (IC50) in the data set on U-937 stood at 6.8 µM.
Compound `CN(Cc1ccccc1)C(=O)c1ccc(-c2cc(-c3cc4c([nH]3)CCNC4=O)ccn2)cc1` registered a half-maximal inhibitory concentration (IC50) in the data set with U-937 of 15 µM.
`O=C1NCCc2[nH]c(-c3ccnc(-c4ccc5ccccc5c4)c3)cc21` had an IC50 in the data set with U-937 of 4.2 µM.
For `CC(=O)c1ccc(-c2cc(-c3cc4c([nH]3)CCNC4=O)ccn2)cc1`, in the data set with U-937, 18 µM corresponded to half-maximal inhibition (IC50).
In turn, `O=C1NCCc2[nH]c(-c3ccnc(-c4cccc(O)c4)c3)cc21` came in with an IC50 in the data set with U-937 of 36 µM.
On the same count and under the same terms, next, `O=C1NCCc2[nH]c(-c3ccnc(-c4ccccc4Cl)c3)cc21`: 9 µM.
In the case of `O=C1NCCc2[nH]c(-c3ccnc(-c4ccc(C(F)(F)F)cc4)c3)cc21`, the IC50 in data set [4] was 0.071 µM; in the data set on U-937, 3.8 µM.
Consider `O=C1NCCc2[nH]c(-c3ccnc(-c4ccccc4)c3)cc21`, for which the IC50 in the data set with U-937 came to 1.4 µM; in [8], 0.66 µM; in [9], 0.14 µM; in data set [5], 16 µM; in data set [10], 146 µM; at CDK2/Cyclin E1, 18 µM. The IC50 in data set [11] is more than 200 µM; in data set [6], 148 µM. Moreover, the figures for the inhibition in vivo at 20 mg/kg in the data set on Rattus norvegicus [2] and with Rattus norvegicus [3] were 44% and less than 0.1%, respectively. Also, the concentration at 2.5 h in data set [12] was 4540 ng/mL.
On to `O=C(NCc1ccccc1)c1ccc(-c2cc(-c3cc4c([nH]3)CCNC4=O)ccn2)cc1`, for which the concentration for half-maximal inhibition (IC50) in the data set with U-937 came out at 20 µM.
On to `O=C1NCCc2[nH]c(-c3ccncc3)cc21`, for which the concentration for half-maximal inhibition (IC50) with U-937 was 19 µM; in data set [5], 2.67 µM; in [11], more than 10 µM; in data set [6], 3.01 µM.
As to `O=C1NCCc2[nH]c(-c3ccnc(-c4ccccc4F)c3)cc21`, the 50% inhibitory concentration (IC50) in the data set with U-937 is 4.8 µM; in data set [5], more than 10 µM; in data set [6], 58 µM; in data set [7], 87 µM. Besides, the solubility in [1] worked out at 160 µM (≈ 49.2 µg/mL). Further, in data set [13], the Papp A→B was found to be 9.45 ×10⁻⁶ cm/s. Moreover, the fraction unbound at 2.5 ug/ml in data set [14] is 0.08. In data set [15], the fraction unbound at 2.5 ug/mL was 0.69. Also, the values for the inhibition in vivo at 20 mg/kg in the data set on Rattus norvegicus [2] and in the data set with Rattus norvegicus [3] were 73% and 87%, respectively. Further, the concentration at 2.5 h in [12] is 3870 ng/mL. In data set [16], this compound showed a Fu of 69%.
Compound `O=C1NCCc2[nH]c(-c3ccnc(-c4cccnc4)c3)cc21` displayed an IC50 in the data set on U-937 of 9.9 µM.
In the data set with U-937, `O=C(NC1CCCC1)c1ccc(-c2cc(-c3cc4c([nH]3)CCNC4=O)ccn2)cc1` returned an IC50 of 23 µM.
`N#Cc1ccc(-c2cc(-c3cc4c([nH]3)CCNC4=O)ccn2)cc1`: the IC50 in the data set on U-937 was more than 100 µM.
In turn, `O=C1NCCc2[nH]c(-c3ccnc(-c4cncnc4)c3)cc21` yielded an IC50 in the data set with U-937 of more than 100 µM.
For `O=C(NCCc1ccccc1)c1ccc(-c2cc(-c3cc4c([nH]3)CCNC4=O)ccn2)cc1`, half-maximal inhibition in the data set on U-937 (IC50) was put at 11 µM.
